Measurements taken from paper PMC9471048, “The signaling and selectivity of α‐adrenoceptor agonists for the human α2A, α2B and α2C‐adrenoceptors and comparison with human α1 and β‐adrenoceptors” (Pharmacology Research & Perspectives, 2022).
Where two headings read alike, the source gives them in different places.

Experiments:
human α2A‐adrenoceptor [1] = biological target: T1, human α2A‐adrenoceptor (Homo sapiens, UniProt P08913)
T1 sequence (P08913 1-465): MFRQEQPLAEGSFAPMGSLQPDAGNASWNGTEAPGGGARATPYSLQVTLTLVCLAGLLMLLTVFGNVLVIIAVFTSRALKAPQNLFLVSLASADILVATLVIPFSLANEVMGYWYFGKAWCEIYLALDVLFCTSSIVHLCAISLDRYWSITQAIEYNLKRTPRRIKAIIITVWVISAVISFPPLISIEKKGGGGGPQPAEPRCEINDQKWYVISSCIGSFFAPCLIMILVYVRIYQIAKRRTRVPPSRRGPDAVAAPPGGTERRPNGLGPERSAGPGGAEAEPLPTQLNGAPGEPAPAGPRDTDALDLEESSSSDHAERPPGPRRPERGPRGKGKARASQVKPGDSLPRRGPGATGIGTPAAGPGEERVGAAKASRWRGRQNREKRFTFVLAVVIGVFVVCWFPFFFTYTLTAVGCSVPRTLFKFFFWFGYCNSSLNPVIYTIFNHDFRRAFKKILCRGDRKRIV

human α2C‐adrenoceptor [2] = biological target: T2, human α2C‐adrenoceptor (Homo sapiens, UniProt P18825)
T2 sequence (P18825 1-462): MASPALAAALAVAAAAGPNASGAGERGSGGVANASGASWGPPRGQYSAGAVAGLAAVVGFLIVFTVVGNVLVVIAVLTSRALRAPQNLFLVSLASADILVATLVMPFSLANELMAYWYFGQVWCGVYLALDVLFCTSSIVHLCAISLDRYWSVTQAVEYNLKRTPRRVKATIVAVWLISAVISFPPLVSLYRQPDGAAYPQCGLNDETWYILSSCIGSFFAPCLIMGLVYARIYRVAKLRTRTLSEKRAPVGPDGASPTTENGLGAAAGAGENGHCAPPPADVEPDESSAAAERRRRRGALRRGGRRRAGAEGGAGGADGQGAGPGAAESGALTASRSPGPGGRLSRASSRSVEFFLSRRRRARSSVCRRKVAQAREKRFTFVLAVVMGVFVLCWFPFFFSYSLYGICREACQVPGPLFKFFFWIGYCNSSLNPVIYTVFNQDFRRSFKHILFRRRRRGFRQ

human α2A‐adrenoceptor [3] = biological target: T1, human α2A‐adrenoceptor; assay: 3H‐rauwolscine whole cell binding in CHO‐α2A cells; parameters: expressed in transfected cells; host or cells: CHO-K1 with CRE-SPAP reporter
human α2C‐adrenoceptor [4] = biological target: T2, human α2C‐adrenoceptor; assay: 3H‐rauwolscine whole cell binding in CHO‐α2C cells; parameters: expressed in transfected cells; host or cells: CHO-K1 with CRE-SPAP reporter
human α2A‐adrenoceptor [5] = biological target: T1, human α2A‐adrenoceptor; assay: ERK1/2‐phosphorylation in CHO‐α2A cells; assay type: cell-based; parameters: expressed in transfected cells; host or cells: CHO-K1 with CRE-SPAP reporter
human α2C‐adrenoceptor [6] = biological target: T2, human α2C‐adrenoceptor; assay: ERK1/2‐phosphorylation in CHO‐α2C cells; assay type: cell-based; parameters: expressed in transfected cells; host or cells: CHO-K1 with CRE-SPAP reporter
[7] = test system: parent CHO cells (no transfected receptor); parameters: method as in PMID 34355529; details: non‐α‐mediated mechanism; cited from earlier work
α1A‐adrenoceptor = biological target: T3, α1A‐adrenoceptor (Homo sapiens, UniProt P35348)
T3 sequence (P35348 1-466): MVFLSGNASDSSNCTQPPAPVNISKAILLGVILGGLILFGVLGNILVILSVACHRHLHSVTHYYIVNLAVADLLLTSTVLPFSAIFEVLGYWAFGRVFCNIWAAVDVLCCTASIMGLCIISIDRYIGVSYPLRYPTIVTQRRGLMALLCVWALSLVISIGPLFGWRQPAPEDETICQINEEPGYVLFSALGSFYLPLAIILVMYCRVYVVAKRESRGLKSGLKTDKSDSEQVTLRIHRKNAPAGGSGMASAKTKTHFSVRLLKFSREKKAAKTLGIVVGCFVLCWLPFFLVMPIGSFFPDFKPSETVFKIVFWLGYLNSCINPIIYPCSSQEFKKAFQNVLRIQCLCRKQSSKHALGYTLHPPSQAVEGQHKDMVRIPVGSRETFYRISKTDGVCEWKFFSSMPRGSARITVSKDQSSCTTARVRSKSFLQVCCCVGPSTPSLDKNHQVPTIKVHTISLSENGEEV

[8] = CHO‐α2C cells, % inhibition from the 3 μM forskolin control, mean ± SEM
[9] = CHO‐α2C cells, CRE‐SPAP production in the absence of forskolin
[10] = fold, from KD values, 1 = no selectivity
[11] = CHO‐α2C cells, maximum response compared to 10 μM PDBu, mean ± SEM

CCNCC(O)c1cccc(O)c1 (centres unmarked) [Etilefrine]
% inhibition, CRE‐SPAP (with forskolin) (human α2A‐adrenoceptor [1]; CHO‐α2A (cell line 1), % inhibition from the 3 μM forskolin control, inhibition only): 101.3 ± 4.6%
Log EC50 (Gs), CRE‐SPAP (without forskolin) (human α2A‐adrenoceptor [1]; CHO‐α2A (cell line 1), absence of forskolin): No response
Log efficacy ratio (KD/IC50) (human α2A‐adrenoceptor [1]; CHO‐α2A, binding KD / Gi IC50 of CRE‐SPAP): 0.61
IC50 (human α2A‐adrenoceptor [1]; Log IC50 (Gi), CRE‐SPAP (with forskolin), CHO‐α2A (cell line 1, 5830 fmol/mg protein), 3 μM forskolin): 47.9 µM
% inhibition, CRE‐SPAP (with forskolin) (human α2C‐adrenoceptor [2]; [8]): 86.2 ± 7.2%
Log EC50 (Gs), CRE‐SPAP (without forskolin) (human α2C‐adrenoceptor [2]; [9]): No response
Log efficacy ratio (KD/IC50) (human α2C‐adrenoceptor [2]; CHO‐α2C cells, log KD from 3H‐rauwolscine binding versus CRE‐SPAP log IC50): 1.01
IC50 (human α2C‐adrenoceptor [2]; Log IC50 (Gi), CRE‐SPAP (with forskolin), CHO‐α2C cells, inhibition of 3 μM forskolin‐stimulated CRE‐SPAP production, given as negative log IC50, mean ± SEM): 12 µM
Kd (human α2A‐adrenoceptor [3]; 3H‐rauwolscine whole cell binding, ^app: apparent KD, IC50 from extrapolated curve as not all specific binding was inhibited, read-out: Log KD (apparent), CHO‐α2A (converted)): 195 µM
Kd (human α2A‐adrenoceptor [3]; CHO‐α2A, 3H‐rauwolscine whole cell binding, given as negative log KD, read-out: Log KD (binding) (converted)): 195 µM
Selectivity ratio α2A vs α2B (higher affinity for α2A) (human α2A‐adrenoceptor [3]; [10]): 2.1
Kd (human α2C‐adrenoceptor [4]; 3H‐rauwolscine whole cell binding, ^app: apparent KD, IC50 from extrapolated curve as not all specific binding was inhibited, read-out: Log KD (apparent), CHO‐α2C (converted)): 123 µM
Kd (human α2C‐adrenoceptor [4]; CHO‐α2C cells, 3H‐rauwolscine whole cell binding, given as negative log KD, mean only (SEM in Table 4), read-out: Log KD (converted)): 123 µM
Selectivity ratio α2A vs α2C (higher affinity for α2C) (human α2C‐adrenoceptor [4]; [10]): 1.6
Selectivity ratio α2B vs α2C (higher affinity for α2C) (human α2C‐adrenoceptor [4]; [10]): 3.4
% 10 μM PDBu, ERK1/2‐phosphorylation (human α2A‐adrenoceptor [5]; CHO‐α2A, maximum response compared to 10 μM PDBu): 150.8 ± 10.2%
EC50 (human α2A‐adrenoceptor [5]; CHO‐α2A, read-out: Log EC50, ERK1/2‐phosphorylation (converted)): 3.24 µM
% 10 μM PDBu, ERK1/2‐phosphorylation (human α2C‐adrenoceptor [6]; [11]): 182.2 ± 9.6%
EC50 (human α2C‐adrenoceptor [6]; CHO‐α2C cells, given as negative log EC50, mean ± SEM, read-out: Log EC50, ERK1/2‐phosphorylation (converted)): 3.16 µM

CNCC(O)c1ccc(O)cc1 (centres unmarked) [Synephrine]
% inhibition, CRE‐SPAP (with forskolin) (human α2A‐adrenoceptor [1]): 75.6 ± 5.6%
IC50 (human α2A‐adrenoceptor [1]): 9.55 µM
Log EC50 (Gs), CRE‐SPAP (without forskolin) (human α2A‐adrenoceptor [1]): No response
% inhibition, CRE‐SPAP (with forskolin) (human α2C‐adrenoceptor [2]): 88.1 ± 8.5%
IC50 (human α2C‐adrenoceptor [2]): 34.7 µM
Log EC50 (Gs), CRE‐SPAP (without forskolin) (human α2C‐adrenoceptor [2]): No response
Kd (human α2A‐adrenoceptor [3]): 89.1 µM
Kd (human α2C‐adrenoceptor [4]): 120 µM
% 10 μM PDBu, ERK1/2‐phosphorylation (human α2A‐adrenoceptor [5]): 114.5 ± 12.3%
EC50 (human α2A‐adrenoceptor [5]): 0.776 µM
% 10 μM PDBu, ERK1/2‐phosphorylation (human α2C‐adrenoceptor [6]): 112.8 ± 10.7%
EC50 (human α2C‐adrenoceptor [6]): 3.24 µM

Cc1cc(C(C)(C)C)cc(C)c1CC1=NCCN1 [Xylometazoline]
ERK1/2‐phosphorylation agonist response in parent cells [7]: stimulate ERK1/2‐phosphorylation agonist responses
% inhibition, CRE‐SPAP (with forskolin) (human α2A‐adrenoceptor [1]): 73.9 ± 4.6%
IC50 (human α2A‐adrenoceptor [1]): 0.00741 µM
Log EC50 (Gs), CRE‐SPAP (without forskolin) (human α2A‐adrenoceptor [1]): No response
Log efficacy ratio (KD/IC50) (human α2A‐adrenoceptor [1]): 0.51
% inhibition, CRE‐SPAP (with forskolin) (human α2C‐adrenoceptor [2]): 57.2 ± 3.9%
IC50 (human α2C‐adrenoceptor [2]): 0.0631 µM
Log EC50 (Gs), CRE‐SPAP (without forskolin) (human α2C‐adrenoceptor [2]): No response
Log efficacy ratio (KD/IC50) (human α2C‐adrenoceptor [2]): 0.23
Kd (human α2A‐adrenoceptor [3]): 0.024 µM
Selectivity ratio α2A vs α2B (higher affinity for α2A) (human α2A‐adrenoceptor [3]): 151
Selectivity ratio α2A vs α2C (higher affinity for α2A) (human α2A‐adrenoceptor [3]): 4.5
Kd (human α2A‐adrenoceptor [3]; Log KD, CHO‐α2A): 0.024 µM
Kd (human α2C‐adrenoceptor [4]): 0.107 µM
Selectivity ratio α2B vs α2C (higher affinity for α2C) (human α2C‐adrenoceptor [4]): 33.9
Kd (human α2C‐adrenoceptor [4]; Log KD, CHO‐α2C): 0.107 µM

Nc1cc(Cl)c(N=C2NCCN2)c(Cl)c1 [Para‐amino‐clonidine]
% 3μM forskolin, CRE-SPAP (without forskolin) (human α2A‐adrenoceptor [1]): 12.9 ± 4.1%
% 3 μM forskolin, CRE‐SPAP (without forskolin) (human α2A‐adrenoceptor [1]): 37.6 ± 4.0%
% inhibition, CRE-SPAP (with forskolin) (human α2A‐adrenoceptor [1]): 67.5 ± 4.8%
Log EC50 (Gs), CRE-SPAP (with forskolin) (human α2A‐adrenoceptor [1]): -6.29 ± 0.32
Log EC50 (Gs), CRE‐SPAP (with forskolin) (human α2A‐adrenoceptor [1]): −6.81 ± 0.15
Log EC50 (Gs), CRE‐SPAP (without forskolin) (human α2A‐adrenoceptor [1]): −6.55 ± 0.10
Log IC50 (Gi), CRE‐SPAP (with forskolin) (human α2A‐adrenoceptor [1]): −8.74 ± 0.12
% inhibition, CRE‐SPAP (with forskolin) (human α2C‐adrenoceptor [2]): 82.3 ± 2.2%
Log EC50 (Gs), CRE‐SPAP (without forskolin) (human α2C‐adrenoceptor [2]): No response
Log IC50 (Gi), CRE‐SPAP (with forskolin) (human α2C‐adrenoceptor [2]): −8.09 ± 0.07
Log efficacy ratio (KD/IC50) (human α2C‐adrenoceptor [2]): 1.78
Log KD (binding) (human α2A‐adrenoceptor [3]): −6.35
Log KD, CHO‐α2A (human α2A‐adrenoceptor [3]): −6.35 ± 0.03
Log KD (human α2C‐adrenoceptor [4]): −6.31
% 10 μM PDBu, ERK1/2‐phosphorylation (human α2A‐adrenoceptor [5]): 141.9 ± 10.6%
Log EC50, ERK1/2‐phosphorylation (human α2A‐adrenoceptor [5]): −9.58 ± 0.12
% 10 μM PDBu, ERK1/2‐phosphorylation (human α2C‐adrenoceptor [6]): 132.6 ± 16.1%
Log EC50, ERK1/2‐phosphorylation (human α2C‐adrenoceptor [6]): −8.68 ± 0.13

CS(=O)(=O)Nc1c(O)ccc2c1CCCC2C1=NCCN1 (centres unmarked) [A61603]
higher α1A‐affinity than for any other α‐adrenoceptor (α1A‐adrenoceptor): 1000 fold
Log efficacy ratio (KD/IC50) (human α2C‐adrenoceptor [2]): >2.68
% inhibition, CRE‐SPAP (with forskolin) (human α2C‐adrenoceptor [2]; [8]): 80.5 ± 3.0%
Log EC50 (Gs), CRE‐SPAP (without forskolin) (human α2C‐adrenoceptor [2]; [9]): No response
Log IC50 (Gi), CRE‐SPAP (with forskolin) (human α2C‐adrenoceptor [2]; CHO‐α2C cells, inhibition of 3 μM forskolin‐stimulated CRE‐SPAP production, given as negative log IC50, mean ± SEM): −6.68 ± 0.09
IC50 (human α2C‐adrenoceptor [4]; 3H‐rauwolscine whole cell binding, no KD obtained, read-out: IC50 in binding, CHO‐α2C): > 100 µM
IC50 (log) in binding, no KD obtained (human α2C‐adrenoceptor [4]; CHO‐α2C cells, 3H‐rauwolscine whole cell binding, printed as log value in the Log KD column): IC50 > −4
% 10 μM PDBu, ERK1/2‐phosphorylation (human α2C‐adrenoceptor [6]; [11]): 149.2 ± 30.3%
Log EC50, ERK1/2‐phosphorylation (human α2C‐adrenoceptor [6]; CHO‐α2C cells, given as negative log EC50, mean ± SEM): −7.26 ± 0.15
